Source: article PMC10204090, “TFBMiner: A User-Friendly Command Line Tool for the Rapid Mining of Transcription Factor-Based Biosensors” (ACS Synthetic Biology, 2023)

Target: T1, P. hospita MdlR (C2L64_43720) (Paraburkholderia hospita, UniProt A0AAN1MPU5)
T1 construct: gene WQE_50835; full-length LysR-type regulator, gene codon-optimised for E. coli, expressed from Ptrc in E. coli NEB 5-alpha; rfp reporter under P. hospita PmdlC (PC2L64_43715)
T1 sequence (A0AAN1MPU5 1-297): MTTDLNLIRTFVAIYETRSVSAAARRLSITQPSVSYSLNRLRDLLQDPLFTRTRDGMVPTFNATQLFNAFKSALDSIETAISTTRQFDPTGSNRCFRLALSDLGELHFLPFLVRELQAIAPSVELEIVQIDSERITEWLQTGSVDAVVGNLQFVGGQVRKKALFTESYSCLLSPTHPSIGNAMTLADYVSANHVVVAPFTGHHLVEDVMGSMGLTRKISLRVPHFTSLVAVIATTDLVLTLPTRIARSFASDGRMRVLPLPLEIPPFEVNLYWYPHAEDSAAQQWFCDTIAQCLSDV
Test: E. coli whole-cell RFP reporter assay, Hill fit
Type: cell-based
Details: read-out: Km ^a
Text: E. coli whole-cell RFP reporter assay, Hill fit on P. hospita MdlR (C2L64_43720)

| Compound | EC50 [µM] |
| --- | --- |
| O=C(O)C(=O)c1ccccc1 [compound 4, phenylglyoxylate] | 93 |
| O=C(O)[C@@H](O)c1ccccc1 [compound 1, S-mandelate] | 167 |
